Patent US11150234B2, “Method for evaluating taxic behavior in response to odor substance based on olfactory sense in nematodes, and dish and behavior evaluation system used in evaluation method” (priority 2016, dated 2021)

How the values were obtained:
[1] = system: wild type C. elegans; test: Taxic behavior evaluation through olfactory sense using 5 cm×2 cm rectangular dish, without nematicide; type: in vivo, Caenorhabditis elegans; details: for taxis index: 10 minutes after dissemination, 1 μL isoamyl alcohol diluted 1000-fold with water or 1 μL nonanone stock solution, average of 5 experiments
Procedure: First, a rectangular dish having a bottom surface of 5 cm×2 cm was fabricated as an example (see FIGS. 1A and B). Nematodes were disseminated into a region defined by two lines at the center of the rectangular dish in the longitudinal direction, and an attractant or a repellent was applied to the region at the left end. […] In this example, isoamyl alcohol was used as an attractant, and nonanone was used as a repellent. Specifically, isoamyl alcohol was diluted 1000-fold with water, and 1 μL thereof was applied to the region at the left end. Further, 1 μL of the stock solution of nonanone was applied to the region at the left end. As the nematodes, wild type C. elegans (10 to 50 nematodes/experiment) were used. […] Specifically, the difference in the number of nematodes between those moved to the region (region indicated by O-mark in FIG. 4, corresponding to region 1 of the first embodiment) located between the region at the left end to which an attractant or a repellent was applied and the region at the center in the longitudinal direction in which the nematodes were disseminated and those moved to the region on the opposite side (region indicated by X-mark in FIG. 4, corresponding to region 2 of the first embodiment) was determined, and the result was divided by the number of all nematodes to determine the taxis index. Taxis Index (Taxis index)={(the number of nematodes in region indicated by symbol “O”)−(the number of nematodes in region indicated by symbol “X”)}/the number of all nematodes The experiment was repeated 5 times, to determine the average of taxis indices and SEM. The taxic behavior was evaluated in the same manner as in Example 1 except that urine (1/20 dilution) of a cancer patient or urine (1/20 dilution) of a healthy individual was used as an attractant or a repellent. […] Urine obtained from a plurality of different cancer patients was used.

[2] = system: N2 Bristol strains; test: Taxic behavior evaluation system of third embodiment (5 cm×2 cm×1 mm recess in solid medium covered with plate); type: in vivo, Caenorhabditis elegans; details: 23° C., IAA diluted 10^−5-fold
Procedure: The taxic behavior based on olfactory sense was evaluated using N2 Bristol strains that are nematode strains. […] After a reagent was mixed using the culture medium composition of the assay plate, followed by autoclaving, an appropriate amount of the reagent was poured into a 9 cm dish, and the solid medium was solidified by cooling while pressing a plastic plate of 5 cm×2 cm×1 mm against the surface. After the solid medium was solidified, the plastic plate was removed, to form a recess with a length of 5 cm, a width of 2 cm, and a depth of 1 mm on the surface of the solid medium. Then, isoamyl alcohol (IAA) diluted 10^-5-fold or nonanone (Nona) diluted 10^-3-fold was arranged at the position shown by the symbol “+” on the right side of FIG. 13, and nematodes cultured at 20° C. for 4 days were arranged at the center (which corresponded to region B in FIG. 13). Thereafter, the taxic behavior of nematodes at 23° C. was observed. The number of nematodes in the regions corresponding to regions A, B, and C in FIG. 13 were counted after a lapse of 0 minutes, 5 minutes, 10 minutes, and 20 minutes. The number of nematodes remaining was calculated as a ratio of the number of nematodes in response to the number of nematodes at 0 minutes at each time. Further, the taxis index was calculated based on the formula [[…])]. Here, N (A) is the number of nematodes that moved to region A, and N (B) is the number of nematodes that moved to region B.

[3] = at 5 minutes, nonanone diluted 10^−3-fold

Row | SMILES | taxis index [1] | nematodes showing attraction behavior in response to the attractant ([1]; 10 minutes, from taxis index) | taxic behavior observed [2, 3] | taxic behavior observed ([2]; at 20 minutes) | nematodes showing avoidance behavior in response to the repellent ([1]; 10 minutes, from taxis index)
1 | CC(C)CCO [isoamyl alcohol] | over 0.8 | ≥ 90% | migration behavior | migration behavior | 
2 | CCCCCCCC(C)=O [nonanone] | below −0.8 |  | avoidance behavior |  | ≥ 90%
